{"source": "paper PMC3933419", "about": "“Synthesis and Properties of a Selective Inhibitor of Homeodomain–Interacting Protein Kinase 2 (HIPK2)” (PLoS ONE, 2014)", "experiment_in_all_cases": "Kinase panel selectivity profiling", "type_in_all_cases": "biochemical", "key": {"TBK1": {"molecular_target": "TBK1 (Homo sapiens, UniProt Q9UHD2)", "settings": "TBID 1 μM, 125 kinase panel, read-out: % activity of the enzyme", "text": "(§1) The source of HIPK2 and of all of the other protein kinases used for specificity assays is as described elsewhere.\n(§2) Conditions for the activity assays of all other protein kinases tested in selectivity experiments are as described or referenced in [9]."}, "TAO1": {"molecular_target": "TAO1 (Homo sapiens, UniProt Q7L7X3)", "settings": "TBID 1 μM, 125 kinase panel, read-out: % activity of the enzyme", "text": "as §1, §2"}, "PLK1": {"molecular_target": "PLK1 (Homo sapiens, UniProt P53350)", "settings": "TBID 1 μM, 125 kinase panel, read-out: % activity of the enzyme", "text": "as §1, §2"}, "CAMK1": {"molecular_target": "CAMK1 (Homo sapiens, UniProt Q14012)", "settings": "TBID 1 μM, 125 kinase panel, read-out: % activity of the enzyme", "text": "as §1, §2"}, "p38b MAPK": {"molecular_target": "p38b MAPK (Homo sapiens, UniProt Q15759)", "settings": "TBID 1 μM, 125 kinase panel, read-out: % activity of the enzyme", "text": "as §1, §2"}, "ROCK 2": {"molecular_target": "ROCK 2 (Homo sapiens, UniProt O75116)", "settings": "TBID 1 μM, 125 kinase panel, read-out: % activity of the enzyme", "text": "as §1, §2"}, "PAK5": {"molecular_target": "PAK5 (Homo sapiens, UniProt Q9P286)", "settings": "TBID 1 μM, 125 kinase panel, read-out: % activity of the enzyme", "text": "as §1, §2"}, "SmMLCK": {"molecular_target": "SmMLCK (Homo sapiens, UniProt Q15746)", "settings": "TBID 1 μM, 125 kinase panel, read-out: % activity of the enzyme", "text": "as §1, §2"}, "PKBa": {"molecular_target": "PKBa (Homo sapiens, UniProt P31749)", "settings": "TBID 1 μM, 125 kinase panel, read-out: % activity of the enzyme", "text": "as §1, §2"}, "MELK": {"molecular_target": "MELK (Homo sapiens, UniProt Q14680)", "settings": "TBID 1 μM, 125 kinase panel, read-out: % activity of the enzyme", "text": "as §1, §2"}, "NEK6": {"molecular_target": "NEK6 (Homo sapiens, UniProt Q9HC98)", "sequence (Q9HC98 whole entry)": "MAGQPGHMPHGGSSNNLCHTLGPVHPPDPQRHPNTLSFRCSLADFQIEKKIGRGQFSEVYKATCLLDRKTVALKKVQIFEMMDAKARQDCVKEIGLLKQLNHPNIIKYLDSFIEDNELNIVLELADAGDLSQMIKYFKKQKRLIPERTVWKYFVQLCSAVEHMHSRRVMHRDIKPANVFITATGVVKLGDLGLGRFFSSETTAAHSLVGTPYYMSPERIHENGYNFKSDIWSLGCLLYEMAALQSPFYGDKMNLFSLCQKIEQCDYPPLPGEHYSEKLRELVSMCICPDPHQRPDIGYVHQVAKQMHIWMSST", "settings": "TBID 1 μM, 125 kinase panel, read-out: % activity of the enzyme", "text": "as §1, §2"}, "MARK1": {"molecular_target": "MARK1 (Homo sapiens, UniProt Q9P0L2)", "settings": "TBID 1 μM, 125 kinase panel, read-out: % activity of the enzyme", "text": "as §1, §2"}, "IKKb": {"molecular_target": "IKKb (Homo sapiens, UniProt O14920)", "settings": "TBID 1 μM, 125 kinase panel, read-out: % activity of the enzyme", "text": "as §1, §2"}, "DYRK2": {"molecular_target": "DYRK2 (Homo sapiens, UniProt Q92630)", "settings": "TBID 1 μM, 125 kinase panel, read-out: % activity of the enzyme", "text": "as §1, §2"}, "IGF-1R": {"molecular_target": "IGF-1R (Homo sapiens, UniProt P08069)", "settings": "TBID 1 μM, 125 kinase panel, read-out: % activity of the enzyme", "text": "as §1, §2"}, "BRSK1": {"molecular_target": "BRSK1 (Homo sapiens, UniProt Q8TDC3)", "settings": "TBID 1 μM, 125 kinase panel, read-out: % activity of the enzyme", "text": "as §1, §2"}, "LKB1": {"molecular_target": "LKB1 (Homo sapiens, UniProt Q15831)", "settings": "TBID 1 μM, 125 kinase panel, read-out: % activity of the enzyme", "text": "as §1, §2"}, "CLK2": {"molecular_target": "CLK2 (Homo sapiens, UniProt P49760)", "settings": "TBID 1 μM, 125 kinase panel, read-out: % activity of the enzyme", "text": "as §1, §2"}, "BTK": {"molecular_target": "BTK (Homo sapiens, UniProt Q06187)", "sequence (Q06187 whole entry)": "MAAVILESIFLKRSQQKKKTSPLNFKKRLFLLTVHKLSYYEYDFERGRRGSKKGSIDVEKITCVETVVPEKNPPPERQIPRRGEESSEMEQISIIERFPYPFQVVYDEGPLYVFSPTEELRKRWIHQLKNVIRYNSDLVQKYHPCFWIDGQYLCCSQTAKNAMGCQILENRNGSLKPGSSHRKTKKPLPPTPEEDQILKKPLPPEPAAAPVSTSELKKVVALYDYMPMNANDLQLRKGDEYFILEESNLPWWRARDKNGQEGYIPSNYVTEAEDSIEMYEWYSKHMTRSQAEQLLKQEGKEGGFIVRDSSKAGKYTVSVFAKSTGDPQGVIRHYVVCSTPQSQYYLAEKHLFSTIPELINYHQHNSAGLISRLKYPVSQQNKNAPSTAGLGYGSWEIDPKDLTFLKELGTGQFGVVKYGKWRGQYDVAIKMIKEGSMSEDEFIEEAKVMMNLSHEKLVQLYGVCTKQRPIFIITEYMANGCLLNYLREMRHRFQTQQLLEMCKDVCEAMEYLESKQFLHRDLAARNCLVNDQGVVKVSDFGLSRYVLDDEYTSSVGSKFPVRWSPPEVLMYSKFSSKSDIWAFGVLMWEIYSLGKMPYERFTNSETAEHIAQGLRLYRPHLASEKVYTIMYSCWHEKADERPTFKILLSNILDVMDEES", "text": "as §1, §2"}, "p38d MAPK": {"molecular_target": "p38d MAPK (Homo sapiens, UniProt O15264)", "settings": "TBID 1 μM, 125 kinase panel, read-out: % activity of the enzyme", "text": "as §1, §2"}, "OSR1": {"molecular_target": "OSR1 (Homo sapiens, UniProt O95747)", "settings": "TBID 1 μM, 125 kinase panel, read-out: % activity of the enzyme", "text": "as §1, §2"}, "SRPK1": {"molecular_target": "SRPK1 (Homo sapiens, UniProt Q96SB4)", "settings": "TBID 1 μM, 125 kinase panel, read-out: % activity of the enzyme", "text": "as §1, §2"}, "EPH-B2": {"molecular_target": "EPH-B2 (Homo sapiens, UniProt P29323)", "settings": "TBID 1 μM, 125 kinase panel, read-out: % activity of the enzyme", "text": "as §1, §2"}, "PKBb": {"molecular_target": "PKBb (Homo sapiens, UniProt P31751)", "sequence (P31751 whole entry)": "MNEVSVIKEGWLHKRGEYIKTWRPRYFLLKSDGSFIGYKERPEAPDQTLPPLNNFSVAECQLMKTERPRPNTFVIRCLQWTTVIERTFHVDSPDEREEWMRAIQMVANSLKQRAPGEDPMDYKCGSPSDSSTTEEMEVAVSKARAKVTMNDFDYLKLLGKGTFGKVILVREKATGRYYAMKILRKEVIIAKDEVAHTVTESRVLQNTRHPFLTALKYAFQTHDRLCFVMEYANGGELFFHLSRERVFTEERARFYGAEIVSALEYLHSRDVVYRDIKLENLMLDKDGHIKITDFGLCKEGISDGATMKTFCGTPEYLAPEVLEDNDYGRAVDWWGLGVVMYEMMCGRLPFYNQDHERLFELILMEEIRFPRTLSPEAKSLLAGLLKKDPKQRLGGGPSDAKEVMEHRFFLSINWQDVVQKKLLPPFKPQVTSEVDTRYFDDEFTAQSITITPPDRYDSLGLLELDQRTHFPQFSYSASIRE", "settings": "TBID 1 μM, 125 kinase panel, read-out: % activity of the enzyme", "text": "as §1, §2"}, "ZAP70": {"molecular_target": "ZAP70 (Homo sapiens, UniProt P43403)", "settings": "TBID 1 μM, 125 kinase panel, read-out: % activity of the enzyme", "text": "as §1, §2"}, "NUAK1": {"molecular_target": "NUAK1 (Homo sapiens, UniProt O60285)", "settings": "TBID 1 μM, 125 kinase panel, read-out: % activity of the enzyme", "text": "as §1, §2"}, "HIPK3": {"molecular_target": "HIPK3 (Homo sapiens, UniProt Q9H422)", "settings": "TBID 1 μM, 125 kinase panel, read-out: % activity of the enzyme", "text": "as §1, §2"}, "HER4": {"molecular_target": "HER4 (Homo sapiens, UniProt Q15303)", "settings": "TBID 1 μM, 125 kinase panel, read-out: % activity of the enzyme", "text": "as §1, §2"}, "VEG-FR": {"molecular_target": "VEG-FR (Homo sapiens, UniProt P17948)", "sequence (P17948 27-1338)": "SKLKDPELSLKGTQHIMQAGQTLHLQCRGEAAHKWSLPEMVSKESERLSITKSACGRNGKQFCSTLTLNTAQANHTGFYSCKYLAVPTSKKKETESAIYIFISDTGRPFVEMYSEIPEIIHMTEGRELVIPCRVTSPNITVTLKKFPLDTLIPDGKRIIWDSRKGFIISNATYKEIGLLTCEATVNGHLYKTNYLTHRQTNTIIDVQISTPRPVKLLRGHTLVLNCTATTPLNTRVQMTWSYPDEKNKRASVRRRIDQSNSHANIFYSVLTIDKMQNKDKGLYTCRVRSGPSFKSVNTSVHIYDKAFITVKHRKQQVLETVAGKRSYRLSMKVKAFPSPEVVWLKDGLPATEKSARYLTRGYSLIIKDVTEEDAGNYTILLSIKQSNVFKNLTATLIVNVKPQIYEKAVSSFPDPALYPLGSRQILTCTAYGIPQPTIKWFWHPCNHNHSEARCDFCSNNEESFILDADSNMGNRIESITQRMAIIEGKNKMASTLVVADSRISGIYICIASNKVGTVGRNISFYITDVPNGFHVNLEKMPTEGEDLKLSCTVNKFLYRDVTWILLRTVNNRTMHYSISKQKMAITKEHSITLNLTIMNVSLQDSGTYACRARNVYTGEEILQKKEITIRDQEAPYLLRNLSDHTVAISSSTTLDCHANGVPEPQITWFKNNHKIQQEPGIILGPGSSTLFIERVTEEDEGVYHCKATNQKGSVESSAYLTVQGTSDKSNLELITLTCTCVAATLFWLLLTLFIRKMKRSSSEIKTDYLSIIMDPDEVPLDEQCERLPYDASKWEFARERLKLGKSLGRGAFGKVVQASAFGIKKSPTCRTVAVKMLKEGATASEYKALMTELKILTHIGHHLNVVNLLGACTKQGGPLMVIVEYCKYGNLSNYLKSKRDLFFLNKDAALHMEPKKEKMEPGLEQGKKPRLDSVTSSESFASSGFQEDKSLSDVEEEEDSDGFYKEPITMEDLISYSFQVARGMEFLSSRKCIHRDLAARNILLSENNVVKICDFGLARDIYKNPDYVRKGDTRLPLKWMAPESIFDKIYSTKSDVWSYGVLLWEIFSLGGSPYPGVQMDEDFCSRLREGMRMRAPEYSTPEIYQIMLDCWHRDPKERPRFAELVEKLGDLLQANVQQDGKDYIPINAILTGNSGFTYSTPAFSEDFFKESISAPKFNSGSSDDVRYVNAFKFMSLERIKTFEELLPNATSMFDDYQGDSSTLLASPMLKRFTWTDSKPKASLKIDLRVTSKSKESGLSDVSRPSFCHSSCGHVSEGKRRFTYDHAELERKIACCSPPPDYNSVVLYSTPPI", "settings": "TBID 1 μM, 125 kinase panel, read-out: % activity of the enzyme", "text": "as §1, §2"}, "MST4": {"molecular_target": "MST4 (Homo sapiens, UniProt Q9P289)", "sequence (Q9P289 whole entry)": "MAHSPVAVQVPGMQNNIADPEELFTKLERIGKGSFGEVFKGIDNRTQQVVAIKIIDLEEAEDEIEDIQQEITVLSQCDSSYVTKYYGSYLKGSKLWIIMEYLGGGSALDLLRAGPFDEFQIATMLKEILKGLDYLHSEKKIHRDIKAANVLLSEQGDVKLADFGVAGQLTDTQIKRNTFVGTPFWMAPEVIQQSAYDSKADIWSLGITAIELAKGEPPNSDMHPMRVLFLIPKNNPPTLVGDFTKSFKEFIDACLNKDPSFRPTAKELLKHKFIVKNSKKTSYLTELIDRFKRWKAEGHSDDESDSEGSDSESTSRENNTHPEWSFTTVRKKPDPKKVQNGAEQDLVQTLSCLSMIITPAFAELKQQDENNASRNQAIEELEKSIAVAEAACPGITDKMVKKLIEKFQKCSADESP", "settings": "TBID 1 μM, 125 kinase panel, read-out: % activity of the enzyme", "text": "as §1, §2"}, "Aurora A": {"molecular_target": "Aurora A (Homo sapiens, UniProt O14965)", "settings": "TBID 1 μM, 125 kinase panel, read-out: % activity of the enzyme", "text": "as §1, §2"}, "BRSK2": {"molecular_target": "BRSK2 (Homo sapiens, UniProt Q8IWQ3)", "sequence (Q8IWQ3 whole entry)": "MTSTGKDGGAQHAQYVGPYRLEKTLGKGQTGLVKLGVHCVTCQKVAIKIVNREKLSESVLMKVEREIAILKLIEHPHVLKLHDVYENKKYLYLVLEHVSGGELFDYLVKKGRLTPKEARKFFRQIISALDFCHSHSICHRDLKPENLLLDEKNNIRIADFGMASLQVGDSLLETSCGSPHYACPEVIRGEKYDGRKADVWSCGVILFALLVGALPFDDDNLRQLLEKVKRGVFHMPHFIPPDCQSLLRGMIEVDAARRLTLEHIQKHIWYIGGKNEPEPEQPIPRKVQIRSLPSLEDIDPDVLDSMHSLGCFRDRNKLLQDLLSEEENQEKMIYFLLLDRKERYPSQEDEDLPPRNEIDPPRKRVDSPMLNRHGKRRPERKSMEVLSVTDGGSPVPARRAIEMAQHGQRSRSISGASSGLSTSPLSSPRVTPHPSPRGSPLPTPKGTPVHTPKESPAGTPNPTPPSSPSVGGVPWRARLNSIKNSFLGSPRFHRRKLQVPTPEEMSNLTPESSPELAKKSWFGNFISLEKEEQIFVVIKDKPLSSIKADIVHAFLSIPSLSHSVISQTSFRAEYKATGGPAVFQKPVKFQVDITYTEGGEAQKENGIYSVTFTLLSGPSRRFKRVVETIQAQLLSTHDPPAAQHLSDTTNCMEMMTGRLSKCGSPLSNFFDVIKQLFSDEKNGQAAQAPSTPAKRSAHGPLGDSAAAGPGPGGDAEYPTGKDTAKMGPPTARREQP", "settings": "TBID 1 μM, 125 kinase panel, read-out: % activity of the enzyme", "text": "as §1, §2"}, "TLK1": {"molecular_target": "TLK1 (Homo sapiens, UniProt Q9UKI8)", "settings": "TBID 1 μM, 125 kinase panel, read-out: % activity of the enzyme", "text": "as §1, §2"}, "EPH-B3": {"molecular_target": "EPH-B3 (Homo sapiens, UniProt P54753)", "sequence (P54753 34-998)": "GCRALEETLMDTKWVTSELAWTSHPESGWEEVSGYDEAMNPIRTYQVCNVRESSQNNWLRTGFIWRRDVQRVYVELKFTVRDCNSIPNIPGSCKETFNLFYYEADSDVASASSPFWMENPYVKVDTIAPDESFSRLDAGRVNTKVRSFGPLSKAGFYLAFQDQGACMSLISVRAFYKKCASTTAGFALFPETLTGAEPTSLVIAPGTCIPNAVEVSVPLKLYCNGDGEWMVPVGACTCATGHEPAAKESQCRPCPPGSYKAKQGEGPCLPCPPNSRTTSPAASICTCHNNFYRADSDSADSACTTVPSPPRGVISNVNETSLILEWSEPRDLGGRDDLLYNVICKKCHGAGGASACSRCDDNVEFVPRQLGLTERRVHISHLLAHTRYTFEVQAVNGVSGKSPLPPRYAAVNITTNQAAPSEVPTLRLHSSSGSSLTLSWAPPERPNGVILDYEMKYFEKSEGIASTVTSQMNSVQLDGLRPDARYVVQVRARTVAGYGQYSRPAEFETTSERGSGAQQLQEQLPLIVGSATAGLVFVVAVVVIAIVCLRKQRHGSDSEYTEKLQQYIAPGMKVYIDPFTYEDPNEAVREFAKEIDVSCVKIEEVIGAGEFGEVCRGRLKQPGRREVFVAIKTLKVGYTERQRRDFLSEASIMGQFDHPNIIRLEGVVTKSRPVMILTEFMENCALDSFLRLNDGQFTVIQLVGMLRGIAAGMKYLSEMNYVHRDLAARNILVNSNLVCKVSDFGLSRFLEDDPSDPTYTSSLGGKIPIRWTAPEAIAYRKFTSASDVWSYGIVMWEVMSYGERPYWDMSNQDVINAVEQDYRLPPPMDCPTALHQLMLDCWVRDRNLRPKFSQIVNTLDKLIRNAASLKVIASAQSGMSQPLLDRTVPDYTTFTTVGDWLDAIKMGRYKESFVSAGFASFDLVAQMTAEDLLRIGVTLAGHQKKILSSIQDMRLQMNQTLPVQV", "settings": "TBID 1 μM, 125 kinase panel, read-out: % activity of the enzyme", "text": "as §1, §2"}, "JNK3": {"molecular_target": "JNK3 (Homo sapiens, UniProt P53779)", "settings": "TBID 1 μM, 125 kinase panel, read-out: % activity of the enzyme", "text": "as §1, §2"}, "TSSK1": {"molecular_target": "TSSK1 (Homo sapiens, UniProt Q9BXA7)", "settings": "TBID 1 μM, 125 kinase panel, read-out: % activity of the enzyme", "text": "as §1, §2"}, "IR": {"molecular_target": "IR (Homo sapiens, UniProt P06213)", "settings": "TBID 1 μM, 125 kinase panel, read-out: % activity of the enzyme", "text": "as §1, §2"}, "Aurora B": {"molecular_target": "Aurora B (Homo sapiens, UniProt Q96GD4)", "settings": "TBID 1 μM, 125 kinase panel, read-out: % activity of the enzyme", "text": "as §1, §2"}, "JNK1": {"molecular_target": "JNK1 (Homo sapiens, UniProt P45983)", "settings": "TBID 1 μM, 125 kinase panel, read-out: % activity of the enzyme", "text": "as §1, §2"}, "HIPK1": {"molecular_target": "HIPK1 (Homo sapiens, UniProt Q86Z02)", "settings": "TBID 1 μM, 125 kinase panel, read-out: % activity of the enzyme", "text": "as §1, §2"}, "SYK": {"molecular_target": "SYK (Homo sapiens, UniProt P43405)", "settings": "TBID 1 μM, 125 kinase panel, read-out: % activity of the enzyme", "text": "as §1, §2"}, "PRAK": {"molecular_target": "PRAK (Homo sapiens, UniProt Q8IW41)", "settings": "TBID 1 μM, 125 kinase panel, read-out: % activity of the enzyme", "text": "as §1, §2"}}, "data": [{"compound": "O=C1c2c(Br)c(Br)c(Br)c(Br)c2C(=O)N1c1ncc[nH]1", "note": "[TBID, 4,5,6,7-Tetrabromo-2-(1H-imidazol-2-yl)isoindoline-1,3-dione]", "values": [{"measurement": "activity at 1 µM", "setting": "TBK1", "value": 108, "unit": "%"}, {"measurement": "activity at 1 µM", "setting": "TAO1", "value": 110, "unit": "%"}, {"measurement": "activity at 1 µM", "setting": "PLK1", "value": 83, "unit": "%"}, {"measurement": "activity at 1 µM", "setting": "CAMK1", "value": 78, "unit": "%"}, {"measurement": "activity at 1 µM", "setting": "p38b MAPK", "value": 111, "unit": "%"}, {"measurement": "activity at 1 µM", "setting": "ROCK 2", "value": 117, "unit": "%"}, {"measurement": "activity at 1 µM", "setting": "PAK5", "value": 105, "unit": "%"}, {"measurement": "activity at 1 µM", "setting": "SmMLCK", "value": 103, "unit": "%"}, {"measurement": "activity at 1 µM", "setting": "PKBa", "value": 104, "unit": "%"}, {"measurement": "activity at 1 µM", "setting": "MELK", "value": 110, "unit": "%"}, {"measurement": "activity at 1 µM", "setting": "NEK6", "value": 105, "unit": "%"}, {"measurement": "activity at 1 µM", "setting": "MARK1", "value": 102, "unit": "%"}, {"measurement": "activity at 1 µM", "setting": "IKKb", "value": 99, "unit": "%"}, {"measurement": "activity at 1 µM", "setting": "DYRK2", "value": 94, "unit": "%"}, {"measurement": "activity at 1 µM", "setting": "IGF-1R", "value": 68, "unit": "%"}, {"measurement": "activity at 1 µM", "setting": "BRSK1", "value": 110, "unit": "%"}, {"measurement": "activity at 1 µM", "setting": "LKB1", "value": 102, "unit": "%"}, {"measurement": "activity at 1 µM", "setting": "CLK2", "value": 101, "unit": "%"}, {"measurement": "remaining activity at 10 µM", "setting": "BTK; 10 µM TBID, panel of 76 protein kinases, read-out: residual activity", "value": 29, "unit": "%"}, {"measurement": "activity at 1 µM", "setting": "BTK; TBID 1 μM, 125 kinase panel, read-out: % activity of the enzyme", "value": 84, "unit": "%"}, {"measurement": "activity at 1 µM", "setting": "p38d MAPK", "value": 106, "unit": "%"}, {"measurement": "activity at 1 µM", "setting": "OSR1", "value": 103, "unit": "%"}, {"measurement": "activity at 1 µM", "setting": "SRPK1", "value": 77, "unit": "%"}, {"measurement": "activity at 1 µM", "setting": "EPH-B2", "value": 108, "unit": "%"}, {"measurement": "activity at 1 µM", "setting": "PKBb", "value": 104, "unit": "%"}, {"measurement": "activity at 1 µM", "setting": "ZAP70", "value": 91, "unit": "%"}, {"measurement": "activity at 1 µM", "setting": "NUAK1", "value": 81, "unit": "%"}, {"measurement": "activity at 1 µM", "setting": "HIPK3", "value": 53, "unit": "%"}, {"measurement": "activity at 1 µM", "setting": "HER4", "value": 91, "unit": "%"}, {"measurement": "activity at 1 µM", "setting": "VEG-FR", "value": 115, "unit": "%"}, {"measurement": "activity at 1 µM", "setting": "MST4", "value": 108, "unit": "%"}, {"measurement": "activity at 1 µM", "setting": "Aurora A", "value": 101, "unit": "%"}, {"measurement": "activity at 1 µM", "setting": "BRSK2", "value": 99, "unit": "%"}, {"measurement": "activity at 1 µM", "setting": "TLK1", "value": 107, "unit": "%"}, {"measurement": "activity at 1 µM", "setting": "EPH-B3", "value": 103, "unit": "%"}, {"measurement": "activity at 1 µM", "setting": "JNK3", "value": 101, "unit": "%"}, {"measurement": "activity at 1 µM", "setting": "TSSK1", "value": 109, "unit": "%"}, {"measurement": "activity at 1 µM", "setting": "IR", "value": 101, "unit": "%"}, {"measurement": "activity at 1 µM", "setting": "Aurora B", "value": 106, "unit": "%"}, {"measurement": "activity at 1 µM", "setting": "JNK1", "value": 106, "unit": "%"}, {"measurement": "activity at 1 µM", "setting": "HIPK1", "value": 39, "unit": "%"}, {"measurement": "activity at 1 µM", "setting": "SYK", "value": 108, "unit": "%"}, {"measurement": "activity at 1 µM", "setting": "PRAK", "value": 95, "unit": "%"}]}]}
